# Assay results taken from patent US10220026B2, “Micelle containing epirubicin-complexed block copolymer and anti-cancer agent, and pharmaceutical composition containing said micelle applicable to treatment of cancer, resistant cancer or metastatic cancer” (priority 2014, dated 2019).
# Columns and labels:
# [1] = Incorporation of compounds in micelles of epirubicin-conjugated block copolymer (HPLC, DLS); format: physicochemical; details: for detection of the compound in micelles formed by epirubicin-conjugated block copolymer: micelles produced by the method of Example 1
# Description: The mixed solution was applied to a rotary evaporator (N-1200AV (Elyra)) followed by evaporating the methanol. After having evaporated the methanol, HEPES buffer (10 mM, pH 7.4, 50 ml) was added to the flask followed by carrying out sonication for 30 minutes (Bioruptor, Cosmo Bio Co., Ltd., Japan). Subsequently, the solution was passed through a polyethersulfone (PES) filter (0.22 μm) (Millipore Corp.). The solution was further purified by subjecting to five rounds of ultrafiltration (molecular weight cutoff: 30,000 Da) (Centricon Plus-20, Millipore Corp.) for 15 minutes (while adding 5 ml of HEPES buffer (10 mM, pH 7.4) for each round of ultrafiltration) followed by concentrating to 15 ml. Finally, the solution was passed through a PES filter (0.22 μm).
# [2] = test system: MSTO-211H mesothelioma cells; assay: Aldefluor assay (FACS) on cancer stem cells in mesothelioma; format: cell-based, human; details: 1 μM cisplatin, 0.01 μM pemetrexed, 0.001 μM staurosporine, 0.01 μM UCN-1; 72 hours or 24 hours
# [3] = test system: Epirubicin-resistant breast cancer cells (MCF-7); assay: Elimination of epirubicin and eFluxx-ID-GFP by resistant strain (confocal microscopy), breast cancer; format: cell-based, human; details: epirubicin-resistant strain; concentrations of Table 6
# Description: (§1) Epirubicin-resistant breast cancer cells (MCF-7) and cisplatin-resistant lung cancer cells (H460) were respectively disseminated in each of the wells of an 8-well Tek chambered cover glass (Thermo Fisher Scientific K.K.) at 1×10^4 cells/well followed by culturing overnight. The medium was then replaced with 200 μl of RPMI1640 (phenol red-free) containing 0.1 μg/ml of Hoechst 33342 and 10% FBS.
# (§2) 200 μl of eFluxx-ID-GFP solution were added 1 hour after addition of drug. The medium was replaced with RPMI1640 medium containing 10% FBS 30 minutes after addition followed by observation with an LSM780 confocal microscope and taking photographs thereof (FIGS. 12B and 13B). Cells subjected to the procedure prior to acquiring resistance were used as a control and epirubicin was added for the drug. In this experiment, fluorescence-labeled epirubicin (manufacturer) was used for the epirubicin.
# [4] = test system: cisplatin-resistant lung cancer cells (H460); assay: Elimination of epirubicin and eFluxx-ID-GFP by resistant strain (confocal microscopy), lung cancer; format: cell-based, human; details: concentrations of Table 6
# Description: as §1, §2
# [5] = test system: cisplatin-resistant human lung cancer H460-luc cells; assay: In vivo anti-cancer activity in orthotopic lung cancer model (survival); details: female nude mice, intravenous, epirubicin equivalent 6 mg/kg, Days 4, 11, 18, 25, 32
# Description: Luciferase-expressing lung cancer H460-luc cells (JCRB) were cultured for 3 months in medium containing 1 μg/ml of cisplatin to acquire a cisplatin-resistant strain. 2×10^6 cells of the cisplatin-resistant strain H460-luc (containing 10% Matrigel (Becton Dickinson) were implanted into the left lower lobe of the lungs of female nude mice in accordance with the method described in Fushiki, et al., Cancer Sci., 2009 August, 100(8). Four days after implant, the drugs indicated in the following table were diluted to their prescribed dosages with physiological saline for injection (Otsuka Pharmaceutical Co., Ltd.) and administered into the caudal vein (on Days 4, 11, 18, 25 and 32).
# HEPES solution was administered instead of a drug for use as a negative control. […] D-luciferin (Summit Pharmaceuticals International Corp.) was administered intraperitoneally and luminescence intensity of the luciferase was measured twice a week using an IVIS Imaging System (Summit Pharmaceuticals International Corp.) (FIG. 8A). Survival curves were verified according to the Kaplan-Meier method using Prism software and the presence of significant differences was tested using the log-rank test.
# [6] = test system: epirubicin-resistant human mesothelioma cells (MSTO-211H-luc); assay: In vivo anti-cancer activity in orthotopic mesothelioma model (survival); details: female nude mice, intravenous, epirubicin equivalent 6 mg/kg, Days 5-63
# Description: Human mesothelioma MSTO-211H was transfected with luciferase based on the method described in Mol. Ther., 2012 April, 20(4), 769-777 to obtain a luciferase-expressing strain (MSTO-211H-luc). MSTO-211H-luc cells were cultured for 3 months in medium containing 0.2 μg/ml of epirubicin to produce epirubicin-resistant human mesothelioma cells (MSTO-211H-luc). 1×10^6 of the epirubicin-resistant MSTO-211H-luc cells were administered into the thoracic cavity of female nude mice to produce an orthotopic implant model. Five days after administration, drugs at the dosages shown in the following table were diluted with physiological saline for injection (Otsuka Pharmaceutical Co., Ltd.) and administered into the caudal vein (on Days 5, 9, 13, 23, 33, 43, 53 and 63).
# HEPES solution was administered instead of a drug for use as a negative control. […] D-luciferin (Summit Pharmaceuticals International Corp.) was administered intraperitoneally, and body weights of the mice were measured simultaneous to measuring luminescence intensity of the luciferase twice a week using an IVIS Imaging System (Summit Pharmaceuticals International Corp.) (FIGS. 6A to 6C). […] Significant differences as determined with a log-rank test were observed between the negative control and Epi (P=0.016), between Epi and Epi Micelle (P=0.0001) and between Epi Micelle and STS+Epi Micelle (P=0.0012).
# [7] = test system: mouse kidney cancer-derived cells (Renca); assay: In vivo anti-cancer activity in orthotopic kidney cancer model (survival, lung metastasis, CD105); details: Balb/c mice, intravenous, epirubicin equivalent 6 mg/kg, Days 4, 11, 18
# Description: 2×10^4 mouse kidney cancer-derived cells (Renca) (50 μl, containing 10% Matrigel) were administered into the renal capsules of Balb/c mice using the method described in Dinney, C. […] Four days after administering into the kidney, the drugs indicated in the following table were diluted to their prescribed dosages with physiological saline for injection (Otsuka Pharmaceutical Co., Ltd.) and administered into the caudal vein (on Days 4, 11 and 18).
# HEPES solution was administered instead of a drug for use as a negative control. […] The days in which the animals died were recorded, and survival curves were verified according to the Kaplan-Meier method using Prism software and the presence of significant differences was tested using the log-rank test.
# Sixty days later, the diameters of tumors that had metastasized to the lung were measured by 3DμCT (R-mCT2m, Rigaku Corp., Japan) for the experimental animals, or in the case an animal had died, the radius was measured directly following autopsy followed by determination of tumor volume (using the equation 4/3×π×r^3). […] Moreover, the number of cells expressing the stem cell marker, CD105, was measured by flow cytometry.
# [8] = test system: cisplatin-resistant lung cancer cells (H460 Cis-R); assay: eFluxx-ID Green Multidrug Resistance Assay (drug elimination activity, MAF), lung cancer; format: cell-based, human; details: 30 μM
# Description: (§3) More specifically, after detaching each of the cultured cells by incubating in trypsin-EDTA solution, the cells were washed with medium to obtain cell suspensions having a concentration of 1×10^4 cells/ml. […] 125 μl of eFluxx-ID-GFP solution were added 1 hour after addition of drug at the concentration directed in the kit. Following addition, the cell suspensions were incubated for 30 minutes at 37° C. followed by the addition of DAPI at a final concentration of 0.5 μg/ml and analyzing with a flow cytometer (BD LSR II, BD Biosciences). MAF values shown in the figures refer to the multidrug resistance activity factor (MAF) calculated from the mean fluorescence intensity of flow cytometry, and a high value for MAF indicates a greater inhibitory effect on ABC transporters. The calculation formulas were as indicated below: MAFMDR-1=100×(FMDR-1−F0)/FMDR-1 MAFMRP=100×(FMRP−F0)/FMRP NAFBCRP=100×(FBCRP−F0)/FBCRP [Equation 4] (wherein, F represents the mean flow cytometry value during addition of inhibitor, and F0 represents the mean flow cytometry value when inhibitor is not added).
# [9] = test system: epirubicin-resistant mesothelioma cells (MSTO-211H EPI-R); assay: eFluxx-ID Green Multidrug Resistance Assay (drug elimination activity, MAF), mesothelioma; format: cell-based, human; details: 30 μM
# Description: as §3
# [10] = test system: Hela cells highly expressing BCRP; assay: eFluxx-ID Green Multidrug Resistance Assay (drug elimination activity, MAF), BCRP; format: cell-based; details: 30 μM
# Description: as §3
# [11] = test system: A549 cells highly expressing MRP; assay: eFluxx-ID Green Multidrug Resistance Assay (drug elimination activity, MAF), MRP; format: cell-based; details: 30 μM
# Description: as §3
# [12] = test system: epirubicin-resistant breast cancer cells (MCF-7 EPI-R); assay: eFluxx-ID Green Multidrug Resistance Assay (drug elimination activity, MAF), breast cancer; format: cell-based, human; details: 30 μM
# Description: as §3
# [13] = test system: Mesothelioma cell line MSTO-211H cells; assay: Effect of micelle incorporation during addition of hAGP, Cell Counting Kit-8 cell survival; format: cell-based, human; details: hAGP 0.5 mg/ml; STS 0.02 μg/ml, epirubicin 0.1 μg/ml
# Description: Anti-cancer activity was measured according to the method indicated below using the Cell Counting Kit-8 (Dojindo, Japan). Mesothelioma cell line MSTO-211H cells were disseminated at 1×10^3 cells/well to 3×10^3 cells/well and cultured. The medium was replaced on the following day followed by the addition of 50 μl of medium. […] 72 hours later, 10 μl of Cell Counting Kit-8 were added followed by measuring optical absorbance at 450 nm 1 hour later with a microplate reader (Model 680, BioRad, Hercules, Calif.). […] Cell survival rate (%)=[(As−Ab)/(Ac−Ab)×100 [Equation 2]
# In the equation, As indicates the optical absorbance of the specimen (wells containing cells, test substance and Cell Counting Kit solution), Ac indicates the optical absorbance of a negative control (wells containing only cells and Cell Counting Kit solution) (absence of test substance), and Ab indicates the optical absorbance of a blank (cell-free wells containing only medium and Cell Counting Kit solution).
compound,measurement,setting,value
CS(=O)(=O)c1ccc(C(=O)Nc2ccc(Cl)c(-c3ccccn3)c2)c(Cl)c1 [vismodegib],detection of the compound in micelles formed by epirubicin-conjugated block copolymer,[1],unable to be detected in the micelles
N.N.[Cl][Pt][Cl] [cisplatin],Aldefluor-positive cells (cancer stem cells),[2],increased
CO[C@@H]1[C@H](N(C)C(=O)c2ccccc2)C[C@H]2O[C@]1(C)n1c3ccccc3c3c4c(c5c6ccccc6n2c5c31)C(=O)NC4 [PKC412],detection of the compound in micelles formed by epirubicin-conjugated block copolymer,[1],able to be detected in the micelles
COC(=O)[C@H]1[C@H]2C[C@@H]3c4[nH]c5cc(OC)ccc5c4CCN3C[C@H]2C[C@@H](OC(=O)c2cc(OC)c(OC)c(OC)c2)[C@@H]1OC [reserpine],detection of the compound in micelles formed by epirubicin-conjugated block copolymer,[1],able to be detected in the micelles
COc1ccc(CCN(C)CCCC(C#N)(c2ccc(OC)c(OC)c2)C(C)C)cc1OC (stereo not drawn) [verapamil],elimination of epirubicin and eFluxx-ID outside the cells,[3],localized within the cells
same,elimination of epirubicin and eFluxx-ID outside the cells,[4],localized within the cells
"COc1cccc2c1C(=O)c1c(O)c3c(c(O)c1C2=O)C[C@@](O)(C(=O)CO)C[C@@H]3O[C@H]1C[C@H](N)[C@@H](O)[C@H](C)O1 [Epi, epirubicin]","survival, significant difference versus negative control (log-rank test P)",[5],not observed
same,elimination of epirubicin and eFluxx-ID outside the cells,[3],eliminated outside cells
same,"survival, log-rank test P versus negative control",[6],0.016
same,elimination of epirubicin and eFluxx-ID outside the cells,[4],eliminated outside cells
same,"survival, log-rank test P versus negative control",[7],0.0001
"C[C@]12O[C@H](C[C@]1(O)CO)n1c3ccccc3c3c4c(c5c6ccccc6n2c5c31)CNC4=O [CEP701/lestaurtinib, lestaurtinib]",detection of the compound in micelles formed by epirubicin-conjugated block copolymer,[1],able to be detected in the micelles
"CN[C@@H]1C[C@H]2O[C@@](C)([C@@H]1OC)n1c3ccccc3c3c4c(c5c6ccccc6n2c5c31)C(=O)N[C@H]4O [UCN-01, 7-hydroxystaurosporine]",Aldefluor-positive cells (cancer stem cells),[2],decreased
same,detection of the compound in micelles formed by epirubicin-conjugated block copolymer,[1],able to be detected in the micelles
CN[C@@H]1C[C@H]2O[C@@](C)([C@@H]1OC)n1c3ccccc3c3c4c(c5c6ccccc6n2c5c31)C(=O)NC4 [staurosporine],elimination of drug (eFluxx-ID) from cells,[8],prevented elimination
same,elimination of drug (eFluxx-ID) from cells,[9],prevented elimination
same,elimination of drug (eFluxx-ID) from cells,[10],prevented elimination
same,elimination of drug (eFluxx-ID) from cells,[11],prevented elimination
same,elimination of drug (eFluxx-ID) from cells,[12],prevented elimination
same,Aldefluor-positive cells (cancer stem cells),[2],decreased
same,effect of addition of human α-acid glycoprotein (hAGP) on cell survival rate,[13],significant increase in cell survival rate
same,dispersibility of staurosporine-incorporating epirubicin micelle,[1]; epirubicin:staurosporine weight ratio of 1:1,dispersibility increased
same,polydispersivity of staurosporine-incorporating epirubicin micelle,"[1]; epirubicin:staurosporine weight ratio of 1:2, unsuitable as incorporating micelle",polydispersivity increased
same,incorporation of staurosporine in the epirubicin micelle,[1]; epirubicin:staurosporine weight ratio of 5:1,complete incorporation
same,detection of the compound in micelles formed by epirubicin-conjugated block copolymer,[1],able to be detected in the micelles
Nc1nc2[nH]cc(CCc3ccc(C(=O)N[C@@H](CCC(=O)O)C(=O)O)cc3)c2c(=O)[nH]1 [pemetrexed],Aldefluor-positive cells (cancer stem cells),[2],increased
Cn1cc(C2=C(c3cn(C4CCN(Cc5ccccn5)CC4)c4ccccc34)C(=O)NC2=O)c2ccccc21 [enzastaurin],detection of the compound in micelles formed by epirubicin-conjugated block copolymer,[1],unable to be detected in the micelles
